{"source": "paper PMC12051620", "about": "“Molecular basis underlying the specificity of an antagonist AA92593 for mammalian melanopsins” (The Journal of Biological Chemistry, 2025)", "key": {"[1]": {"molecular_target": "T1, human melanopsin F94^2.61C/S188^ECL2T/S269^6.52A mutant (Homo sapiens, UniProt Q9UHM6, F127C/S222T/S313A)", "T1 construct": "expressed in transfected cells; host or cells: COS-1", "T1 sequence (Q9UHM6 1-384 F127C/S222T/S313A)": "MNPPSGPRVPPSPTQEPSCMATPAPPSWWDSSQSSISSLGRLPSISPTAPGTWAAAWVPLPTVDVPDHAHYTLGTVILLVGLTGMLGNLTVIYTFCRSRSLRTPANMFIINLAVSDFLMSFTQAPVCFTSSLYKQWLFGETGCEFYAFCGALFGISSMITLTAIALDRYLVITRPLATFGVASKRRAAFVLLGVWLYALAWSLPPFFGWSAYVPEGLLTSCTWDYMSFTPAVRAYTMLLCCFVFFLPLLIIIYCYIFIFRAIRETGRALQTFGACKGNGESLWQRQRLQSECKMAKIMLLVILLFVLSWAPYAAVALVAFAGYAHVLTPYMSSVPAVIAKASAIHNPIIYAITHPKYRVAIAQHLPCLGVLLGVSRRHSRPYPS", "assay": "GsX GloSensor assay with Gsα/q11", "format": "cell-based", "details": "16.7 μM AA92593, COS-1 cells", "excerpt": "(§1) The single substitutions F94^2.61C, S188^ECL2T, and S269^6.52A in mammalian melanopsins reduced the inhibitory effects of AA92593 (Figs. 2G and 3E). We suspected that the combination of these substitutions would further decrease the AA92593 effect. We thus introduced the triple substitutions F94^2.61C/S188^ECL2T/S269^6.52A into human and mouse melanopsins and examined the inhibitory effects of AA92593. In both mammalian melanopsins, the F94^2.61C/S188^ECL2T/S269^6.52A substitution reduced the inhibitory effect of AA92593 more than the single substitutions (∼63% and ∼35% reductions for human and mouse melanopsins, respectively) (Figs. 2, F and G, 3, D and E).\n(§2) For GloSensor assay, opsins, GloSensor assay sensor (coded by pGlo-22F), and NanoBiT-tagged G proteins were transiently expressed in COS-1 cells (kindly provided from Dr David Farrens, Oregon Health and Science University) using PEI as described previously ([24], [52]). For the GsX GloSensor assay ([12], [13]), each well of a 96-well assay plate (Corning) was transfected with 50 ng opsin plasmid, 16.7 ng G protein plasmid, 50 ng pGlo-22F plasmid (Promega), and 500 ng PEI in 25 μl Opti-mem and 75 μl Dulbecco's modified Eagle's medium (D-MEM). […] For GFP-fluorescence microscopy, a 35-mm cell culture dish (IWAKI) was transfected with 2 μg melanopsin-GFP plasmid and 8 μg PEI in 400 μl Opti-mem and 1.2 ml D-MEM. […]"}, "[2]": {"molecular_target": "T2, mouse melanopsin F94^2.61C/S188^ECL2T/S269^6.52A mutant (Mus musculus, UniProt Q9QXZ9, F126C/S221T/S310A)", "T2 construct": "expressed in transfected cells; host or cells: COS-1", "T2 sequence (Q9QXZ9 1-381 F126C/S221T/S310A)": "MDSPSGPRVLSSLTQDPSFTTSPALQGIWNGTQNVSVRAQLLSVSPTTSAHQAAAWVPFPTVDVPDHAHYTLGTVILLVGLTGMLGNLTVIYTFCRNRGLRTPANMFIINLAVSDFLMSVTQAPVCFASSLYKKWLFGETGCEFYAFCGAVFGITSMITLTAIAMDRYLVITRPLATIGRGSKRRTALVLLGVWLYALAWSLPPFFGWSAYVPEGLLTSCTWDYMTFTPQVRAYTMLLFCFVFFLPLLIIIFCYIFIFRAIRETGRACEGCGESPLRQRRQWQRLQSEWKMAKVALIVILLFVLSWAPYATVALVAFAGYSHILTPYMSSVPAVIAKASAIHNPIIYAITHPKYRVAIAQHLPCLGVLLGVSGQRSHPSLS", "assay": "GsX GloSensor assay with Gsα/q11", "format": "cell-based", "details": "16.7 μM AA92593, COS-1 cells", "excerpt": "as §1, §2"}}}
{"smiles": "COc1ccc(S(=O)(=O)N2CCCCC2)cc1C", "note": "[AA92593]", "values": [{"measurement": "reduction of the inhibitory effect of AA92593 vs WT", "setting": "[1]", "result": "~63", "unit": "%"}, {"measurement": "reduction of the inhibitory effect of AA92593 vs WT", "setting": "[2]", "result": "~35", "unit": "%"}]}
